Assay results: US8906925B2, “Pyrido[4,3-B]indoles containing rigid moieties” (Medivation Technologies, Inc., priority 2008, dated 2014)

Legend:
[1] = molecular target: T1, human recombinant adrenergic α1D receptor (Homo sapiens, UniProt P25100); test: Adrenergic α1D radioligand binding ([3H]Prozosin); conditions: percent inhibition of specific binding; compound at 1 μM; read-out: Inhibition of ligand binding, Adrenergic α1D
T1 construct: expressed in transfected cells; host or cells: human embryonic kidney (HEK-293) cells
T1 sequence (P25100 1-572): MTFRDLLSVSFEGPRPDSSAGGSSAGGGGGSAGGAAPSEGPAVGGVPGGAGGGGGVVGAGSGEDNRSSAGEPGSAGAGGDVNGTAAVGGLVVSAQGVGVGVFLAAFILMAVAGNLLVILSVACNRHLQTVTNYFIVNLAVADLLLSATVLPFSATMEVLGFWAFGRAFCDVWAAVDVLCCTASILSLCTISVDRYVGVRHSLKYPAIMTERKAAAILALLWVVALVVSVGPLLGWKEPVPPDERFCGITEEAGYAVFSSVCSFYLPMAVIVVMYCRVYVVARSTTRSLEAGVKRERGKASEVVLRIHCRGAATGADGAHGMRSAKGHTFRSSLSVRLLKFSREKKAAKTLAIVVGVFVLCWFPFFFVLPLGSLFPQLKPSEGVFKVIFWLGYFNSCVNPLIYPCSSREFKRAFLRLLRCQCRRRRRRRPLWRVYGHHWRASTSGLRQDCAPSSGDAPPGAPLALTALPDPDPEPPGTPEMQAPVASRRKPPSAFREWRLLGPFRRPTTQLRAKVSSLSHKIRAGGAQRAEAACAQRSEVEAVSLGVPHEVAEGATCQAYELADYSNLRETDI
Description: Compounds of invention were incubated with 0.6 nM [^3H]Prozosin for 60 min. at 25° C. Non-specific binding was estimated in the presence of 10 μM phentolamine. Receptor proteins were filtered and washed, the filters were then counted to determine [^3H]Prozosin specifically bound. Compounds were screened at 1 μM or lower, using 1% DMSO as vehicle. Biochemical assay results are presented as the percent inhibition of specific binding in Table 9.

[2] = molecular target: T2, human recombinant serotonin (5-Hydroxytryptamine) 5-HT2C receptor (Homo sapiens, UniProt P28335); test: Serotonin 5-HT2C radioligand binding ([3H]Mesulergine); conditions: read-out: Inhibition of ligand binding, Serotonin 5-HT2C (percent inhibition of specific binding); for inhibition at 0.1 µM: compound at 0.1 μM; for inhibition at 1 µM: compound at 1 μM
T2 construct: expressed in transfected cells; host or cells: Chinese hamster ovary (CHO-K1) cells
T2 sequence (P28335 33-458): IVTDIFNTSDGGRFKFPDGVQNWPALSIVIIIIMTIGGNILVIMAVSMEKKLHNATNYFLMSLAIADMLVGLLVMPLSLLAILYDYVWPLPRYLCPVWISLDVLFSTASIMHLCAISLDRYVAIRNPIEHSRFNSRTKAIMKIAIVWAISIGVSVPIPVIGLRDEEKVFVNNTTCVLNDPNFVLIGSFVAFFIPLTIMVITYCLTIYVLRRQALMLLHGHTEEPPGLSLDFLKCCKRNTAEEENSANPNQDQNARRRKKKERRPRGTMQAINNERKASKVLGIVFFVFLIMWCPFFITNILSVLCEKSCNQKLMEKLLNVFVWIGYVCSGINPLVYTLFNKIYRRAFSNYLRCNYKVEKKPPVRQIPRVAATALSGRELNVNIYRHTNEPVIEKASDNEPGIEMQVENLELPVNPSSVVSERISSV
Procedure, shortened: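 Compounds tested at 1 μM or lower (1% DMSO vehicle) for displacement of 1 nM [3H]Mesulergine over 60 min at 25° C. Specific binding determined by filtration counting, with 1 μM Mianserin defining non-specific binding; values are percent inhibition.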

[3] = molecular target: human dopamine D2L receptor (Homo sapiens, UniProt P14416); test: Dopamine D2L radioligand binding ([3H]Spiperone); conditions: percent inhibition of specific binding, compound at 1 μM; for inhibition at 1 µM: read-out: Inhibition of ligand binding, Dopamine D2L
Excerpt: Non-specific binding was estimated in the presence of […] Haloperidol. Receptor proteins were filtered and washed, the filters were then counted to determine [^3H]Spiperone specifically bound. […] Biochemical assay results are presented as the percent inhibition of specific binding in Table 9.

[4] = molecular target: histamine receptor H1 (Homo sapiens, UniProt P35367); test: Histamine H1 radioligand binding ([3H]Pyrilamine); conditions: for inhibition at 1 µM: read-out: Histamine Binding (1 μM) H1, percent inhibition of specific binding, 1 μM
Procedure, shortened: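 Values are percent inhibition of specific [3H]pyrilamine (1.2 nM) binding with compounds at ≤1 μM (1% DMSO vehicle); 180 min incubation at 25 °C, pH 7.4 Tris buffer, on CHO-expressed human H1 receptor; 1 μM pyrilamine defined nonspecific binding, bound ligand counted after filtration.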

[5] = molecular target: T3, human recombinant serotonin (5-Hydroxytryptamine) 5-HT2A receptor (Homo sapiens, UniProt P28223); test: Serotonin 5-HT2A radioligand binding ([3H]Ketanserin); conditions: for inhibition at 0.1 µM: read-out: Inhibition of ligand binding, Serotonin 5-HT2A (percent inhibition of specific binding), compound at 0.1 μM; for inhibition at 1 µM: read-out: Inhibition of ligand binding, Serotonin 5-HT2A (percent inhibition of specific binding), compound at 1 μM
T3 construct: expressed in transfected cells; host or cells: Chinese hamster ovary (CHO-K1) cells
Description: Compounds of the invention were incubated with 0.5 nM [^3H]Ketanserin for 60 min. at 25° C. Non-specific binding was estimated in the presence of 1 μM Mianserin. Receptor proteins were filtered and washed, the filters were then counted to determine [^3H]Ketanserin specifically bound.

[6] = molecular target: human recombinant serotonin (5-Hydroxytryptamine) 5-HT7 receptor (Homo sapiens, UniProt P34969); test: Serotonin 5-HT7 radioligand binding ([3H]LSD); conditions: read-out: Inhibition of ligand binding, Serotonin 5-HT7 (percent inhibition of specific binding); for inhibition at 1 µM: compound at 1 μM
Excerpt: Receptor proteins were filtered and washed, the filters were then counted to determine [^3H]LSD specifically bound.

Sequence of human recombinant serotonin (5-Hydroxytryptamine) 5-HT7 receptor (P34969 whole entry): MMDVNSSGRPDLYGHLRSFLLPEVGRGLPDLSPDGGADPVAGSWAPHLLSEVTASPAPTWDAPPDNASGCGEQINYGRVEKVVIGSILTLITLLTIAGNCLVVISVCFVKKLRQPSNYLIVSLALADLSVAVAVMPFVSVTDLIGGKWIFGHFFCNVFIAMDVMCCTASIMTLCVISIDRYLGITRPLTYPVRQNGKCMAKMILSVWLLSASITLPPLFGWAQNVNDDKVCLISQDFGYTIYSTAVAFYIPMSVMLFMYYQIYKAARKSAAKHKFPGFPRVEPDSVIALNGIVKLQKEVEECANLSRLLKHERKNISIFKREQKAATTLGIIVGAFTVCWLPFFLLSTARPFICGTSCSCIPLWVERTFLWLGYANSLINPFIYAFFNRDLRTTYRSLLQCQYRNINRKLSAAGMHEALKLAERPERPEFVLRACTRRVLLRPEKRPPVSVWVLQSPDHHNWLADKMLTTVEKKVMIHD
Sequence of human dopamine D2L receptor (P14416 whole entry): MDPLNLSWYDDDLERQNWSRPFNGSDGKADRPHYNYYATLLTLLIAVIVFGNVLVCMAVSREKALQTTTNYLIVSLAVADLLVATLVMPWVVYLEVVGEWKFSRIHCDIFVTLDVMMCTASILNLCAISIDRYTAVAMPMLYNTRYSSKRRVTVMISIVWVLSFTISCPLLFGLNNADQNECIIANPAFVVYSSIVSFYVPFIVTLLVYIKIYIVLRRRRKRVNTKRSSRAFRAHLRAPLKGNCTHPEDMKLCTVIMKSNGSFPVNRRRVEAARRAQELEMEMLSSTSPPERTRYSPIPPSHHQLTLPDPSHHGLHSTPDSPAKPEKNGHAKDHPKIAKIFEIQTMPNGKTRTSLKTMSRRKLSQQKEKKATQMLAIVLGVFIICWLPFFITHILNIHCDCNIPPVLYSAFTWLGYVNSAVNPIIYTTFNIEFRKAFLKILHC
Sequence of histamine receptor H1 (P35367 whole entry): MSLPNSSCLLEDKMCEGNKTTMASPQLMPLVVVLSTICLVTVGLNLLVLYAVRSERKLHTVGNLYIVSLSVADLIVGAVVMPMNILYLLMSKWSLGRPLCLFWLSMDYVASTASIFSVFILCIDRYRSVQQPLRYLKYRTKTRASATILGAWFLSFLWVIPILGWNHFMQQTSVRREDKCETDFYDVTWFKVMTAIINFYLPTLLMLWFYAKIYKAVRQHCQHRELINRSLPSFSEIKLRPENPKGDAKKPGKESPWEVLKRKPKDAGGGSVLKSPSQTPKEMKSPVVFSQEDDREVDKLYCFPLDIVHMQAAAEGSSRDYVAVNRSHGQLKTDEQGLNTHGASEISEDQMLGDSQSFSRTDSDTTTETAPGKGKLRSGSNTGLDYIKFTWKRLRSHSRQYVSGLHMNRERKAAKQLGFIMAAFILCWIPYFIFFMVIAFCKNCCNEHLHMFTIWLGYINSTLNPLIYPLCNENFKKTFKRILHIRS
T3 sequence (P28223 whole entry): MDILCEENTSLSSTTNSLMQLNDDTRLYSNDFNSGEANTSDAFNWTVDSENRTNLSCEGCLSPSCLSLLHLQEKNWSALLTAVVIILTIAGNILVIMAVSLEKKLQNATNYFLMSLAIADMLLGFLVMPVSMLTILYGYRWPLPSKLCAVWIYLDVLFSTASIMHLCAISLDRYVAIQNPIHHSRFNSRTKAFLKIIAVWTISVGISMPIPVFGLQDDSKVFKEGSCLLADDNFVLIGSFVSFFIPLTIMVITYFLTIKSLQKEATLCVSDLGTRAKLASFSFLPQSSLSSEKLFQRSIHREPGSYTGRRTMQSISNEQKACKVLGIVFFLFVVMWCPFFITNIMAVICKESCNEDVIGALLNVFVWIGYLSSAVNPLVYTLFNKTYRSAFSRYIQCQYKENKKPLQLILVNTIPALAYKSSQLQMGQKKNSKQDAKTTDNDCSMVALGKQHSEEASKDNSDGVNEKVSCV

SMILES	inhibition at 1 µM [1] [%]	inhibition at 0.1 µM [2] [%]	inhibition at 1 µM [2] [%]	Inhibition of ligand binding, Dopamine D2L [3]	inhibition at 1 µM [3] [%]	inhibition at 1 µM [4] [%]	Inhibition of ligand binding, Serotonin 5-HT2A (percent inhibition of specific binding) ([5]; compound at 1 μM, 1 µM) [%]	inhibition at 0.1 µM [5] [%]	inhibition at 1 µM [5] [%]	inhibition at 0.1 µM ([6]; compound at 0.1 μM) [%]	inhibition at 1 µM [6] [%]	Inhibition of ligand binding, Dopamine D2L ([3]; 1 µM) [%]	Histamine Binding (1 μM) H1, percent inhibition of specific binding [4] [%]
COc1ccc(C(C)(O)Cn2c3c(c4cc(C)ccc42)CN(C)CC3)cc1 (stereo not shown) [Compound 174, 1-(2,8-dimethyl-3,4-dihydro-1H-pyrido[4,3-b]indol-5(2H)-yl)-2-(4-methoxyphenyl)propan-2-ol]	57	96	95	34/34%	34	34	100	96	97	68	95	–	–
CCC(O)(Cn1c2c(c3cc(C)ccc31)CN(C)CC2)c1ccc(F)cc1 (stereo not shown) [Compound 175, 1-(2,8-dimethyl-3,4-dihydro-1H-pyrido[4,3-b]indol-5(2H)-yl)-2-(4-fluorophenyl)butan-2-ol]	75	–	95	–	24	71	–	–	102	–	79	–	–
CN1CCc2c(c3cc(Cl)ccc3n2CC(O)(c2ccc(F)cc2)C2CCC2)C1 (stereo not shown) [Compound 177, 2-(8-chloro-2-methyl-3,4-dihydro-1H-pyrido[4,3-b]indol-5(2H)-yl)-1-cyclobutyl-1-(4-fluorophenyl)ethanol]	70	–	95	–	33	83	–	–	97	–	42	–	–
CCCCC(O)(Cn1c2c(c3cc(Cl)ccc31)CN(C)CC2)c1ccc(F)cc1 (stereo not shown) [Compound 178, 1-(8-chloro-2-methyl-3,4-dihydro-1H-pyrido[4,3-b]indol-5(2H)-yl)-2-(4-fluorophenyl)hexan-2-ol]	46	–	95	–	30	30	–	–	98	–	48	–	–
Cc1ccc2c(c1)c1c(n2CC(O)c2ccncc2)CCN(C)C1 (stereo not shown) [Compound 180, 2-(2,8-dimethyl-3,4-dihydro-1H-pyrido[4,3-b]indol-5(2H)-yl)-1-(pyridin-4-yl)ethanol]	60	–	74	–	10	84	–	–	86	–	77	–	–
Cc1ccc2c(c1)c1c(n2/C=C/c2ccccc2)CCN(C)C1 [Compound 202, (E)-2,8-dimethyl-5-styryl-2,3,4,5-tetrahydro-1H-pyrido[4,3-b]indole]	98	–	101	–	83	100	–	–	101	–	91	–	–
CN1CCc2c(c3cc(Cl)ccc3n2/C=C(\c2ccc(F)cc2)C2CC2)C1 [Compound 203, (Z)-8-chloro-5-(2-cyclopropyl-2-(4-fluorophenyl)vinyl)-2-methyl-2,3,4,5-tetrahydro-1H-pyrido[4,3-b]indole]	89	101	98	–	72	64	–	98	100	–	95	78	72
C/C=C/C(=C\n1c2c(c3cc(Cl)ccc31)CN(C)CC2)c1ccc(F)cc1 [Compound 204, 8-chloro-5-((1E,3E)-2-(4-fluorophenyl)penta-1,3-dienyl)-2-methyl-2,3,4,5-tetrahydro-1H-pyrido[4,3-b]indole]	67	–	102	–	87	55	–	–	101	–	93	–	–
C/C(=C\n1c2c(c3ccccc31)CN(C)CC2)c1ccc(F)cc1 [Compound 205, (E)-5-(2-(4-fluorophenyl)prop-1-enyl)-2-methyl-2,3,4,5-tetrahydro-1H-pyrido[4,3-b]indole]	90	96	100	–	98	31	–	104	97	–	102	99	39
CN1CCc2c(c3cc(Cl)ccc3n2/C=C(/c2ccc(F)cc2)C2CCC2)C1 [Compound 206, (E)-8-chloro-5-(2-cyclobutyl-2-(4-fluorophenyl)vinyl)-2-methyl-2,3,4,5-tetrahydro-1H-pyrido[4,3-b]indole]	102	–	98	–	76	76	–	–	98	–	93	–	–
CNC(=O)C/C(=C\n1c2c(c3cc(C)ccc31)CN(C)CC2)c1ccc(F)cc1 [Compound 207, (E)-4-(2,8-dimethyl-3,4-dihydro-1H-pyrido[4,3-b]indol-5(2H)-yl)-3-(4-fluorophenyl)-N-methylbut-3-enamide]	100	–	97	–	12	15	–	–	97	–	92	–	–
CCCC/C(=C\n1c2c(c3cc(Cl)ccc31)CN(C)CC2)c1ccc(F)cc1 [Compound 208, (E)-8-chloro-5-(2-(4-fluorophenyl)hex-1-enyl)-2-methyl-2,3,4,5-tetrahydro-1H-pyrido[4,3-b]indole]	89	–	102	–	78	64	–	–	102	–	100	–	–
Cc1ccc2c(c1)c1c(n2/C=C(\CC(=O)O)c2ccc(F)cc2)CCN(C)C1 [Compound 209, (E)-4-(2,8-dimethyl-3,4-dihydro-1H-pyrido[4,3-b]indol-5(2H)-yl)-3-(4-fluorophenyl)but-3-enoic acid]	21	–	95	–	7	9	–	–	93	–	36	–	–
